Source: ChEMBL document CHEMBL1155782 (Bioorg Med Chem, 2008)

Legend:
Carbonic anhydrase 13 = Carbonic anhydrase 13 (Mus musculus, UniProt Q9D6N1)
Description: Inhibition of mouse carbonic anhydrase 13 by stopped-flow CO2 hydration assay

Carbonic anhydrase 9 = Carbonic anhydrase 9 (Homo sapiens, UniProt Q16790)
Description: Inhibition of human carbonic anhydrase 9 catalytic domain by stopped-flow CO2 hydration assay

Carbonic anhydrase 12 = Carbonic anhydrase 12 (Homo sapiens, UniProt O43570)
Description: Inhibition of human carbonic anhydrase 12 catalytic domain by stopped-flow CO2 hydration assay

Carbonic anhydrase 14 = Carbonic anhydrase 14 (Homo sapiens, UniProt Q9ULX7)
Description: Inhibition of human carbonic anhydrase 14 by stopped-flow CO2 hydration assay

Carbonic anhydrase 3 = Carbonic anhydrase 3 (Homo sapiens, UniProt P07451)
Description: Inhibition of human carbonic anhydrase 3 by stopped-flow CO2 hydration assay

Carbonic anhydrase 4 = Carbonic anhydrase 4 (Homo sapiens, UniProt P22748)
Sequence of Carbonic anhydrase 4 (P22748 whole entry): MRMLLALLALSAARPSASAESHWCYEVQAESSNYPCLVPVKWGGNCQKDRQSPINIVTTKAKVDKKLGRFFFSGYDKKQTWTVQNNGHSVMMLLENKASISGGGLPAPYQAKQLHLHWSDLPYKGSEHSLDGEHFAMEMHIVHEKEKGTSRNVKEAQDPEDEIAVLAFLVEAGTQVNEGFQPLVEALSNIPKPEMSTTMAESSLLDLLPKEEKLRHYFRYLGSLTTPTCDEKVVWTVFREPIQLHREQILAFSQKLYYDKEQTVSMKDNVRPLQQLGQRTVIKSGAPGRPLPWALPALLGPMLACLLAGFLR
Description: Inhibition of human carbonic anhydrase 4 by stopped-flow CO2 hydration assay

[1] = molecular target: Carbonic anhydrase 5A, mitochondrial (Homo sapiens, UniProt P35218)
Sequence of Carbonic anhydrase 5A, mitochondrial (P35218 whole entry): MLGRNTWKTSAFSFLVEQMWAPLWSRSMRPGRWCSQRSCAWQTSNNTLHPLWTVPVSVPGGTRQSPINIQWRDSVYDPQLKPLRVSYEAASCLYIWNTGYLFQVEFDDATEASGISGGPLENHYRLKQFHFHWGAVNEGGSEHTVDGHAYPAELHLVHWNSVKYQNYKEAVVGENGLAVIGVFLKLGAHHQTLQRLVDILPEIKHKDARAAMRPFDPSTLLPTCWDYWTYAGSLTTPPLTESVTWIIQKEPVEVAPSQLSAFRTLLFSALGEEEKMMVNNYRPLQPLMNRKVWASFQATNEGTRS
Description: Inhibition of human carbonic anhydrase 5A by stopped-flow CO2 hydration assay

[2] = molecular target: Carbonic anhydrase 5B, mitochondrial (Homo sapiens, UniProt Q9Y2D0)
Sequence of Carbonic anhydrase 5B, mitochondrial (Q9Y2D0 whole entry): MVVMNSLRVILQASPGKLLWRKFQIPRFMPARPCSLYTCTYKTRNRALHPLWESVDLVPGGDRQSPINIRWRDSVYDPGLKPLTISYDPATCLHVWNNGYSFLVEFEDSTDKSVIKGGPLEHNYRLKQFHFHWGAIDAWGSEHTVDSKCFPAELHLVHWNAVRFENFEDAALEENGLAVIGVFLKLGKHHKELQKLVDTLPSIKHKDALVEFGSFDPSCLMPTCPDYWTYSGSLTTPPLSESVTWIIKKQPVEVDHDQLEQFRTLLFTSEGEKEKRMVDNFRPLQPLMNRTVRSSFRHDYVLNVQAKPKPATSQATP
Description: Inhibition of human carbonic anhydrase 5B by stopped-flow CO2 hydration assay

Carbonic anhydrase 6 = Carbonic anhydrase 6 (Homo sapiens, UniProt P23280)
Sequence of Carbonic anhydrase 6 (P23280 whole entry): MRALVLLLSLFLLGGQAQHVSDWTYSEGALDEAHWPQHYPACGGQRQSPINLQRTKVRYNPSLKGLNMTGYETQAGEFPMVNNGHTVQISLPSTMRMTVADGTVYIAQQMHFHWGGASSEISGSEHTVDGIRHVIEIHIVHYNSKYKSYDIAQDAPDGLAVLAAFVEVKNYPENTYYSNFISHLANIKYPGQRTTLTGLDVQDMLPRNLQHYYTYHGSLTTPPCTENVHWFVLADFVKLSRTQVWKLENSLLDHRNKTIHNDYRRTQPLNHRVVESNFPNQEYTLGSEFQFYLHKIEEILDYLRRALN
Description: Inhibition of human carbonic anhydrase 6 by stopped-flow CO2 hydration assay

Carbonic anhydrase 7 = Carbonic anhydrase 7 (Homo sapiens, UniProt P43166)
Sequence of Carbonic anhydrase 7 (P43166 whole entry): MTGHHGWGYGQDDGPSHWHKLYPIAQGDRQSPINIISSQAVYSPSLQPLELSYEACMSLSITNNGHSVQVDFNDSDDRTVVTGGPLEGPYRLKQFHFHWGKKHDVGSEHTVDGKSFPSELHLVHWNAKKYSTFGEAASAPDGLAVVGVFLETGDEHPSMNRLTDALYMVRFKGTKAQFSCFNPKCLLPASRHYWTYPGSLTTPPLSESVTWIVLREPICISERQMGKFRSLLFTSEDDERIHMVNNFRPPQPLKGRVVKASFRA
Description: Inhibition of human carbonic anhydrase 7 by stopped-flow CO2 hydration assay

Sequence of Carbonic anhydrase 13 (Q9D6N1 whole entry): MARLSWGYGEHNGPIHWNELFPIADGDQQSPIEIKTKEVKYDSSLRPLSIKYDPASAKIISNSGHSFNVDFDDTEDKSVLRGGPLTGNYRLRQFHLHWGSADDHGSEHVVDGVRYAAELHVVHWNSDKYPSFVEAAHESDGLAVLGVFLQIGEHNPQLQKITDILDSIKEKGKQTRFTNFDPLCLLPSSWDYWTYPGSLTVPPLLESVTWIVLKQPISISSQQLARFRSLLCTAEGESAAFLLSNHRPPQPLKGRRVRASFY
Sequence of Carbonic anhydrase 14 (Q9ULX7 whole entry): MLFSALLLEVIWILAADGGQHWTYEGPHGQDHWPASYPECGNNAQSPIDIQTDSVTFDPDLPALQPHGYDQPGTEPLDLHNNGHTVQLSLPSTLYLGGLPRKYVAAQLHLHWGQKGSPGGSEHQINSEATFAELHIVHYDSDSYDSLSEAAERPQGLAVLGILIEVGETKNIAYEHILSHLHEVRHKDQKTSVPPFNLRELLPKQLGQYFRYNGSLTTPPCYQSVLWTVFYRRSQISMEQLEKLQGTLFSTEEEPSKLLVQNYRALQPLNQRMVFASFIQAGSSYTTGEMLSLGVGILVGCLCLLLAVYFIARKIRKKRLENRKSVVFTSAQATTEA
Sequence of Carbonic anhydrase 12 (O43570 whole entry): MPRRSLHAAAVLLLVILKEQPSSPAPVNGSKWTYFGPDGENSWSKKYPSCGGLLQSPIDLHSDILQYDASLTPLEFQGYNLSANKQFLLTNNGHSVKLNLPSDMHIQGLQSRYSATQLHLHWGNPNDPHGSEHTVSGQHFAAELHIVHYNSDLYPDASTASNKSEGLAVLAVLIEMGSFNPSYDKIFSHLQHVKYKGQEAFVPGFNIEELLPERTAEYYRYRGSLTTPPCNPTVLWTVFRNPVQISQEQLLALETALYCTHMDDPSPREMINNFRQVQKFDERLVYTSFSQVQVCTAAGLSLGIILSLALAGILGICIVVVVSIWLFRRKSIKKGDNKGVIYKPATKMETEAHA
Sequence of Carbonic anhydrase 3 (P07451 whole entry): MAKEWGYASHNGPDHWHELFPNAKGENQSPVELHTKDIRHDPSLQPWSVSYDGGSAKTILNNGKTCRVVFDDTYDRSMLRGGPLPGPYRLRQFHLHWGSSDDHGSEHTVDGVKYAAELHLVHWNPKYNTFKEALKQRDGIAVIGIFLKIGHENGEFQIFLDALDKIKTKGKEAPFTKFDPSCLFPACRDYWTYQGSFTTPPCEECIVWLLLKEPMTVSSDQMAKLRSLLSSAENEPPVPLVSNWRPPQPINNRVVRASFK

Structure (SMILES)	Ki (Carbonic anhydrase 13) [µM]	Ki (Carbonic anhydrase 9) [µM]	Ki (Carbonic anhydrase 12) [µM]	Ki (Carbonic anhydrase 14) [µM]	Ki (Carbonic anhydrase 3) [µM]	Ki (Carbonic anhydrase 4) [µM]	Ki [1] [µM]	Ki [2] [µM]	Ki (Carbonic anhydrase 6) [µM]	Ki (Carbonic anhydrase 7) [µM]
Oc1cc(F)ccc1F	69.5	68.7	598	34	10.8	426	12	51.2	90.6	554
N#Cc1ccc(O)cc1 [4-CYANOPHENOL]	45	56	–	–	–	634	520	557	–	777
CC(=O)Nc1ccc(O)cc1 [ACETAMINOPHEN]	30.3	70.7	4.1	10.6	7.1	11.4	802	296	658	–
Oc1ccccc1O [CATECHOL]	12.2	115	8.9	48.9	13	–	55.1	4.2	606	714
Oc1ccc(O)cc1 [HYDROQUINONE]	74.3	32.5	7.8	42	8.2	–	14.1	12.5	521	883
O=C(O)c1ccc(O)cc1 [PARABEN]	86	118	4.8	34.3	696	809	9.2	–	11.4	716
Oc1cccc(O)c1 [RESORCINOL]	62.6	69.7	7.5	10.7	605	570	8.7	7.1	550	644
